Patent US20260226222A1, “PROCESS FOR MANUFACTURING POLYURETHANE FOAM” (Galata Chemicals, LLC, priority 2023, published 2026)
Where “and” joins values, the source holds several entries; their conditions need not be identical. Identical values can stand only once. Like-named read-outs stand apart in the source and are kept apart here.

How the values were obtained:
[1] = cited from earlier work
[2] = Catalytic Activity Test (Dielectric Polarization Analyzer SubCASE HT)
Protocol: Comparative catalytic activity of selected tin-containing catalysts was determined with the use of Dielectric Polarization Analyzer SubCASE HT (Format Messtechnik GmbH) that converts the dielectric conductivity signal to Pot Life and Cure Time (among others) of curing polymer systems. Pot Life was determined by the instrument as time between the mixing the reactants and beginning of the polymerization process at 10% reduction in dielectrical properties from the initial point. Cure Time is calculated as the time between the maximum cure rate point and the point at which the maximum rate is slowed down by 25%. The polyurethane test formulation used for screening catalytic activity of the selected tin-containing catalysts with the use of SubCASE HT is shown in Table 1.
The selected catalysts were tested at loadings of the same tin content. The following catalysts were tested for comparative catalytic activity: stannous di-2-ethylhexanoate, stannous dineodecanoate, stannous diricinoleate, dimethyltin dioleate and dimethyltin dineodecanoate. A catalyst was added to the polyol and mixed at 400 rpm until thoroughly dispersed. IPDI was then added to the polyol/catalyst mixture and mixed for 20 seconds at 400 rpm before introducing the mixture into the SubCASE HT instrument and starting the kinetics measurements. The instrument temperature was set to 30° C. Results of the comparative catalytic activity test for Pot Life and Cure Time of the selected tin-containing catalysts are in Table 2.

[3] = for Cream time / % Elongation / Density / Permeability / Resiliency / Tensile: catalyst 0.23 pphp
Protocol: In addition to the above Examples carried out in the screening polyurethane formulation, actual flexible polyurethane foam specimens were prepared and tested for their performance characteristics.
The flexible polyurethane foam formulation is in Table 4.
Testing results of the prepared foams are in Table 5.

[4] = reproductive toxicity / CMR status, current or as in Comments
[5] = same amount of tin (0.029 g), 30° C.

Compound	CMR classification ([1]; current)	CMR classification [1, 4]	CMR Classification (mutagen) ([1]; mutagenicity)	Cure Time [2, 5]	Cure Time-Pot Life [2, 5]	Pot Life [2, 5]	Cure Time ([2]; same tin amount)	Pot Life ([2]; same tin amount)	Cream time [3]	elongation ([3]; foam)	increase of elongation compared to Example Control 1 and Example Control 2 ([3]; foam)	% Elongation ([3]; foam)	Density ([3]; foam)	Permeability ([3]; foam)	Resiliency ([3]; foam)	Tensile ([3]; foam)
CC(=O)[O-].CC(=O)[O-].[CH3][Sn+2][CH3] [Dimethyltin diacetate]	reprotoxicants of category 2	Reprotox. of Cat. 2	–	–	–	–	–	–	–	–	–	–	–	–	–	–
Dibutyltin dilaurate	reprotoxicants of category 1B	Reprotox. of Cat. 1B	Mutagen of Cat. 2	–	–	–	–	–	–	–	–	–	–	–	–	–
Dimethyltin dineodecanoate	reprotoxicants of category 2	Reprotox. of Cat. 2	–	695 s	321 s	374 s	695 s	374 s	18 s	107%	about 31%	107%	1.37 lbs/ft3	0.3 scfm	20%	15 psi
Dimethyltin dioleate	reprotoxicants of category 2	Reprotox. of Cat. 2	–	1135 s	533 s	602 s	–	602 s	–	–	–	–	–	–	–	–
Dimethyltin diricinoleate	reprotoxicants of category 2	Reprotox. of Cat. 2	–	928 s	457 s	471 s	928 s	471 s	17 s	–	–	93%	1.39 lbs/ft3	4.4 scfm	35%	14 psi
Dioctyltin dilaurate	reprotoxicants of category 1B	Reprotox. of Cat. 1B	–	–	–	–	–	–	–	–	–	–	–	–	–	–
Stannous di(2-ethylhexanoate)	–	–	–	420 s	109 s	311 s	–	311 s	17 s	–	–	–	–	–	–	–
Stannous dineodecanoate	non-CMR	Not CMR	–	741 s	337 s	404 s	741 s	404 s and 471 s	15 s	97%	–	97%	1.32 lbs/ft3	0.6 scfm	28%	14 psi
Stannous diricinoleate	non-CMR	Not CMR	–	895 s	335 s	560 s	895 s	560 s	–	–	–	–	–	–	–	–
